# Measured values published in ChEMBL document CHEMBL1201862, “PubChem BioAssay data set” (2004).
#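 These data come from cells grown in 96-well plates and exposed to compound for 48 hours at five concentrations. The concentration for 50% growth inhibition is given as GI50.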 Calls of active or inactive are those of the source. No stated cut-off is given here; in the data, active = GI50 up to about 1.1 µM and inactive = higher.
# Experiments:
# Assay in all cases: NCI anticancer screen, dose series, 48 h
# CCRF-CEM = test system: CCRF-CEM
# NCI-H522 = test system: NCI-H522
# HL-60 = test system: HL-60
# UO-31 = test system: UO-31
# NCI-H226 = test system: NCI-H226
# UACC-257 = test system: UACC-257
# SF-539 = test system: SF-539
# SW-620 = test system: SW-620
# LXFL 529 = test system: LXFL 529
# SK-OV-3 = test system: SK-OV-3
# ACHN = test system: ACHN
# SNB-19 = test system: SNB-19
# SK-MEL-5 = test system: SK-MEL-5
# M19-MEL = test system: M19-MEL
# IGROV-1 = test system: IGROV-1
# HCC 2998 = test system: HCC 2998
# RPMI-8226 = test system: RPMI-8226
# DLD-1 = test system: DLD-1
# COLO 205 = test system: COLO 205
# U-251 = test system: U-251
# SF-268 = test system: SF-268
# SNB-75 = test system: SNB-75
# UACC-62 = test system: UACC-62
# HOP-92 = test system: HOP-92
# NCI-H23 = test system: NCI-H23
# HT-29 = test system: HT-29
# K562 = test system: K562
# TK-10 = test system: TK-10
# OVCAR-5 = test system: OVCAR-5
# MOLT-4 = test system: MOLT-4
# OVCAR-3 = test system: OVCAR-3
# HOP-62 = test system: HOP-62
# NCI-H460 = test system: NCI-H460
# SF-295 = test system: SF-295
# SK-MEL-28 = test system: SK-MEL-28
# KM12 = test system: KM12
# A549 = test system: A549
# HCT-116 = test system: HCT-116
# OVCAR-8 = test system: OVCAR-8
# SR = test system: SR
# DMS-114 = test system: DMS-114
# KM-20L2 = test system: KM-20L2
# HCT-15 = test system: HCT-15
# 786-0 = test system: 786-0
# SNB-78 = test system: SNB-78
# DMS-273 = test system: DMS-273
# SK-MEL-2 = test system: SK-MEL-2
# M14 = test system: M14
# RXF 393 = test system: RXF 393
# EKVX = test system: EKVX
# XF498 = test system: XF498
# OVCAR-4 = test system: OVCAR-4
# SN12C = test system: SN12C
# Malme-3M = test system: Malme-3M
# CAKI-1 = test system: CAKI-1
# A498 = test system: A498
# LOX IMVI = test system: LOX IMVI
structure (smiles),measurement,setting,value
COc1ccc(/C=N/n2cnc3c(sc(=S)n3-c3ccccc3)c2=O)cc1,GI50,CCRF-CEM,18.3 µM (inactive)
same,GI50,NCI-H522,13.5 µM (inactive)
same,GI50,HL-60,12.5 µM (inactive)
same,GI50,UO-31,40.4 µM (inactive)
same,GI50,NCI-H226,18.3 µM (inactive)
same,GI50,UACC-257,23.6 µM (inactive)
same,GI50,SF-539,12.8 µM (inactive)
same,GI50,SW-620,99.3 µM (inactive)
same,GI50,LXFL 529,16.9 µM (inactive)
same,GI50,SK-OV-3,13.2 µM (inactive)
same,GI50,ACHN,27.6 µM (inactive)
same,GI50,SNB-19,17.7 µM (inactive)
same,GI50,SK-MEL-5,24.7 µM (inactive)
same,GI50,M19-MEL,33.2 µM (inactive)
same,GI50,IGROV-1,37 µM (inactive)
same,GI50,HCC 2998,23.9 µM (inactive)
same,GI50,RPMI-8226,16.4 µM (inactive)
same,GI50,DLD-1,26.8 µM (inactive)
same,GI50,COLO 205,50.8 µM (inactive)
same,GI50,U-251,23.2 µM (inactive)
same,GI50,SF-268,6.28 µM (inactive)
same,GI50,SNB-75,2.47 µM (inactive)
same,GI50,UACC-62,16.7 µM (inactive)
same,GI50,HOP-92,4.43 µM (inactive)
same,GI50,NCI-H23,23.6 µM (inactive)
same,GI50,HT-29,24.5 µM (inactive)
same,GI50,K562,15.8 µM (inactive)
same,GI50,TK-10,25.3 µM (inactive)
same,GI50,OVCAR-5,1.68 µM (inactive)
same,GI50,MOLT-4,20.4 µM (inactive)
same,GI50,OVCAR-3,14.9 µM (inactive)
same,GI50,HOP-62,12.2 µM (inactive)
same,GI50,NCI-H460,35.8 µM (inactive)
same,GI50,SF-295,10 µM (inactive)
same,GI50,SK-MEL-28,13.2 µM (inactive)
same,GI50,KM12,> 100 µM (inactive)
same,GI50,A549,45.5 µM (inactive)
same,GI50,HCT-116,> 100 µM (inactive)
same,GI50,OVCAR-8,26.5 µM (inactive)
same,GI50,SR,29.2 µM (inactive)
CCOC(=O)C(=O)C(C#N)c1ccc(Cl)cc1 (stereo not drawn),GI50,NCI-H522,> 100 µM (inactive)
same,GI50,HL-60,> 100 µM (inactive)
same,GI50,UO-31,88.1 µM (inactive)
same,GI50,NCI-H226,62.4 µM (inactive)
same,GI50,UACC-257,> 100 µM (inactive)
same,GI50,SF-539,> 100 µM (inactive)
same,GI50,SW-620,> 100 µM (inactive)
same,GI50,DMS-114,> 100 µM (inactive)
same,GI50,KM-20L2,> 100 µM (inactive)
same,GI50,LXFL 529,> 100 µM (inactive)
same,GI50,SK-OV-3,> 100 µM (inactive)
same,GI50,HCT-15,> 100 µM
same,GI50,ACHN,> 100 µM (inactive)
same,GI50,786-0,> 100 µM (inactive)
same,GI50,SNB-19,> 100 µM (inactive)
same,GI50,SK-MEL-5,> 100 µM (inactive)
same,GI50,M19-MEL,> 100 µM (inactive)
same,GI50,IGROV-1,> 100 µM (inactive)
same,GI50,SNB-78,> 100 µM (inactive)
same,GI50,RPMI-8226,> 100 µM (inactive)
same,GI50,DMS-273,> 100 µM (inactive)
same,GI50,SK-MEL-2,> 100 µM (inactive)
same,GI50,M14,> 100 µM (inactive)
same,GI50,DLD-1,> 100 µM (inactive)
same,GI50,COLO 205,> 100 µM (inactive)
same,GI50,U-251,> 100 µM (inactive)
same,GI50,SF-268,> 100 µM (inactive)
same,GI50,RXF 393,> 100 µM (inactive)
same,GI50,SNB-75,> 100 µM (inactive)
same,GI50,UACC-62,> 100 µM (inactive)
same,GI50,EKVX,> 100 µM (inactive)
same,GI50,HOP-92,> 100 µM (inactive)
same,GI50,NCI-H23,> 100 µM (inactive)
same,GI50,XF498,> 100 µM (inactive)
same,GI50,OVCAR-4,> 100 µM (inactive)
same,GI50,HT-29,> 100 µM (inactive)
same,GI50,K562,> 100 µM (inactive)
same,GI50,TK-10,> 100 µM (inactive)
same,GI50,OVCAR-5,> 100 µM (inactive)
same,GI50,MOLT-4,> 100 µM (inactive)
same,GI50,OVCAR-3,> 100 µM (inactive)
same,GI50,SN12C,> 100 µM (inactive)
same,GI50,HOP-62,> 100 µM (inactive)
same,GI50,NCI-H460,> 100 µM (inactive)
same,GI50,SF-295,> 100 µM (inactive)
same,GI50,SK-MEL-28,> 100 µM (inactive)
same,GI50,A549,> 100 µM (inactive)
same,GI50,Malme-3M,> 100 µM (inactive)
same,GI50,CAKI-1,> 100 µM (inactive)
same,GI50,HCT-116,> 100 µM (inactive)
same,GI50,OVCAR-8,> 100 µM (inactive)
same,GI50,A498,> 100 µM (inactive)
same,GI50,LOX IMVI,> 100 µM (inactive)
